Measurements as given in patent publication US10457961B2, “Chimeric proteins and methods of regulating gene expression” (The Board of Trustees of the Leland Stanford Junior …, priority 2016, dated 2019).

Legend:
[1] = test system: CDKN1B (cyclin-dependent kinase inhibitor 1B); assay: CDKN1B upregulation and cell cycle arrest with minimal NC5 variants in HEK293T cells; type: cell-based, human; conditions: cells with minimal NC5 receptor variant and sgCDKN1B
From the text: Minimal NC5 receptor variants were used to elicit Delta-dependent arrest of the cell cycle (FIG. 39A). CDKN1B (cyclin-dependent kinase inhibitor 1B) was targeted in HEK293T cells with sgRNAs (sgCDKN1B). CDKN1B overexpression leads to cellular arrest at the G0/G1 phase (FIG. 39B). […] The Delta-induced CDKN1B upregulation and G0/G1 arrest in cells was abrogated with DAPT (FIGS. 39E and 39F).

[2] = test system: luciferase reporter gene; assay: Luciferase reporter activation by chimeric CXCR4-dCas9-VPR in HEK293 cells; type: cell-based, human
From the text: FIGS. 23A and 23B show the results from three independent experiments testing the activity of a chimeric CXCR4-dCas9-VPR-mCherry 2301 in host cells, e.g., HEK293 cells. After ligand binding 2311, the β2-arrestin-protease was recruited to the activated receptor and the protease released the dCas9-VPR-mCherry from the receptor 2321. The expression construct for the β2-arrestin-protease is shown as 2351. The reporter construct is shown in 2341. In each experiment, the dCas9-VPR was paired with a single guide RNA (sgRNA) that specifically activates luciferase expression, which in turn generates luminescence. In this experiment a sgRNA-BFP was used 2331. In some experiments, a scFv-mCherry-VPR 2305 and/or a dCas9-10×GCN4 2307 was used as a control.
The CXCR4-dCas9-VPR-mCherry 2361 was conditionally expressed from a doxycycline-inducible promoter (TRE3G), such that only addition of doxycycline (Dox) and the presence of a co-activator can trigger expression of the recombinant receptor. Without Dox, there is no luminescence (FIG. 23B). […] Upon Dox addition, chimeric CXCR4-dCas9 was expressed, and luminescence was detected. […] Chimeric GPCR-dCas9 proteins described herein can be expressed in immune cells such as T cells and macrophages. Also, chemotactic experiments can be performed to determine if CXCL12 can serves as a chemoattractant to T cells expressing the chimeric GPCR-dCas9 proteins. […]

[3] = test system: GFP reporter; assay: GFP reporter activation by chimeric GPCR-dCas9-VPR receptors in HEK293T cells; type: cell-based, human; conditions: sgRNA and β2-arrestin-protease; presence of ligand (LPA, SDF1, or CNO) compared to absence of ligand
From the text: The released dCas9-VPR was then targeted by sgRNA to a target polynucleotide to alter expression levels of a GFP reporter.

[4] = test system: pTET-EGFP reporter; assay: EGFP reporter activation by dCas9-VPR iNLS variants in HEK293 pTET-EGFP sgTET cells; type: cell-based, human
From the text: Cas9 found at amino acid residues 647-670. […] Representative histograms of EGFP activation in the presence or absence (bottom) of constructs and quantification of EGFP activation (normalized to untransfected cells) is shown (SEQ ID NO: 31, 32). […] FIGS. 35C and 35D show visually by microscopy and quantitatively that adding a synthetic NLS to the N-terminus of iNLS-mutated dCas9-VPR partially restores EGFP activation.
Cas9. This iNLS sequence ([…] (SEQ ID NO: 31)) of amino-acid residues was mapped to a helix-linker-helix motif in the crystal structure of S. py. Cas9. […] Mutating 6 arginine or lysine residues of the iNLS to alanines ([…] (SEQ ID NO: 32)) in a dCas9-VPR-mCherry construct impaired EGFP activation (from 18-fold down to 4-fold) in HEK293 reporter cells. […] Disrupting this iNLS motif by mutating arginine and lysine residues to alanines […] […] Representative histograms of EGFP reporter are shown to the right; percentage of cells considered ‘ON’ had reporter intensities above untransfected ‘OFF’ cells.

[5] = test system: tet-inducible EGFP gene; assay: EGFP activation in HEK293T tet-inducible EGFP sgTET reporter cells on immobilized Delta; type: cell-based, human; conditions: cells cultured without Delta, and DAPT-treated cells with the highest Delta concentration, 3 days
Method: Activation of NC5 receptors by immobilized Delta ligand leads to cleavage and nuclear translocation of dCas9-VPR. dCas9-VPR complexed with a sequence-specific sgRNA (e.g., sgTET) allows for binding of the complex to the (e.g., TET) promoter and activation of EGFP gene (FIG. 31G). […] Cells transfected with dCas9-VPR or NC5 receptor (with or without the γ-secretase inhibitor, DAPT) were cultured with or without immbolized Delta for 3 days. Percentage of activated cells (ON %) is also indicated. Cells are considered ON above the basal intensity of all cells with no construct. […] Mean fold change compared to DAPT-treated condition is indicated.
Surface adsorption of Delta: Experiments described in this example were performed with cells plated on 24- or 48-well plates (Corning) at 1.5×10^4 cells/mL. […] For experiments with CHO cells, 5 μg/mL of hamster fibronectin (Innovative Research) was also adsorbed together with Delta.
Cells were trypsinized and analyzed for reporter fluorescence or protein immunofluorescence using a Scanford FACScan analyzer (Becton Dickinson) and standard protocols. For intracellular proteins, cells were trypsinized and fixed in 4% paraformaldehyde solution for 15 minutes, were incubated for 2 h at room temperature with the appropriate primary antibody in a solution of 0.3% Triton-X 100 (Sigma) with 2% normal donkey serum (Thermo Fisher) in PBS. […]

[6] = test system: UAS promoter controlling H2B-citrine reporter gene; assay: Delta-dependent H2B-citrine reporter activation in CHO UAS-H2B cells with sgUAS; type: cell-based, Chinese hamster
Method: A fusion construct, NC1, was created by replacing the NICD from human NOTCH1 with the Streptococcus pyogenes dCas9 fused to a tripartite activation domain (VP64, p65, and Rta) (FIG. 31B) with three copies of a nuclear localization signal (NLS) sequence. The construct was fluorescently tagged with mCherry to determine its subcellular distribution. Next, it was determined how the NC1 fusion construct responded to extracellular Delta ligands when transfected in mammalian cells. A Chinese hamster ovary (CHO) reporter cell line was used that was previously developed to dissect Notch-Delta signaling (Sprinzak, D. et al. Cis-interactions between Notch and Delta generate mutually exclusive signalling states. Nature 465, 86-90, doi:10.1038/nature08959 (2010)). The CHO cell line contained an inducible UAS (upstream activating sequence) promoter controlling the citrine (YFP)-tagged reporter gene, histone 2B (H2B). sgRNAs (sgUAS) were stably expressed via lentiviral transduction that allow cleaved dCas9 to bind to the UAS promoter (see Table 6). […] By imaging the fluorescence of nucleus-bound H2B-citrine, it was determined whether NC1 induced H2B expression upon exposure to surface-adsorbed Delta (FIG. 31C). […]
(§1) Cells were trypsinized and analyzed for reporter fluorescence or protein immunofluorescence using a Scanford FACScan analyzer (Becton Dickinson) and standard protocols. […]

[7] = test system: cyclin-dependent kinase inhibitor 1B (CDKN1B); assay: Delta-dependent CDKN1B upregulation and G0/G1 arrest in HEK293 sgCDKN1B cells; type: cell-based, human
From the text: Combining the ability to route native extracellular signals with the discriminatory power of sgRNA-mediated Cas9 binding to virtually any genomic target opens up an exponential amount of signaling pathways and functions (FIG. 32A). The Notch chimeric receptors disclosed herein were used to elicit a novel Delta-dependent arrest of the cell-division cycle. HEK293 cells were stably transduced with lentivirus-packaged sgRNAs that specifically target cyclin-dependent kinase inhibitor 1B (CDKN1B), an endogenous regulator of the cell cycle. […] NC5 was transfected into HEK293 cells stably expressing sgRNAs for CDKN1B (sgCDKN1B) and the cells were subsequently introduced onto bare or Delta-containing surfaces. […] 38% of Delta-exposed, NC5-transfected, and sgCDKN1B^+ cells were determined to be sequestered at the G0/G1 phase, and only 2-16% of cells in all other conditions tested. […]
as §1

[8] = test system: 12xCSL promoter H2B-citrine reporter; assay: H2B-citrine reporter driven by 12xCSL promoter in CHO cells with sasgCSL; type: cell-based, Chinese hamster; conditions: with S. aureus-specific sgRNA (sasgCSL)
From the text: Chimera modularity was further explored by testing another Cas9 ortholog in a similar reporter assay (H2B-citrine driven by a 12×CSL promoter that also allows wild-type NICD to bind). A Staphylococcus aureus dCas9 was introduced in the NC5 design. This resulting S. au.
All cell lines used in FIGS. 31A-31F were based on the cell line T-Rex-CHO-K1 (Invitrogen). Stable cell clones of UAS-H2B-citrine and 12×CSL-H2B-citrine were obtained. Additional cell lines were generated from lentiviral transduction (of all sgRNAs and SV40-EGFP) or plasmid transfection using TransIT-LT1 reagent (Minis Bio) per manufacturer's instructions, followed by appropriate antibiotic selection and maintenance. Stably transfected clones expressing NC5 and sgUAS in the UAS-H2B-citrine line were isolated by FACS, after 2 weeks of puromycin and geneticin selection. All CHO cell lines were grown in Alpha MEM with Earle's Salts (Irvine Scientific) supplemented with 10% Tet System Approved FBS (Clontech), 100 U/mL of penicillin and streptomycin, 2 mM L-glutamine (Gibco) and 10 μg/mL blasticidin (VWR International) at 37° C. with 5% CO2 in a humidified incubator.
Surface adsorption of Delta: Experiments described in this example were performed with cells plated on 24- or 48-well plates (Corning) at 1.5×10^4 cells/mL. […]

In the case of `C[C@H](NC(=O)Cc1cc(F)cc(F)c1)C(=O)N[C@H](C(=O)OC(C)(C)C)c1ccccc1` [DAPT], the “Delta-induced CDKN1B upregulation and G0/G1 arrest” value [1] is reported as “abrogated”.

In the case of “CXCR4-dCas9-VPR: CXCR4-V2 tail-TEV cleavage site-dCas9-VPR-NLS-mCherry, SEQ ID NO:3”, the “luminescence (luciferase reporter)” value ([2]; HEK293 cells, sgRNA activating luciferase, receptor induced with doxycycline) is reported as “sensitive to increasing concentrations of the CXCR4 ligand, CXCL12”, the “transcription of luciferase gene” value ([2]; sgTET, TetO promoter, β2-arrestin-protease) is reported as “regulated by CXCL2 binding” and the “levels of GFP reporter protein” value [3] is reported as “increased levels of GFP reporter protein”.

With “mutated-iNLS variant: dCas9-VPR-mCherry with 6 arginine or lysine residues of the iNLS mutated to alanines (SEQ ID NO: 32) (VMAQLKAAAYTGWGRLSAALINGI)” the “nuclear localization and EGFP reporter activation” value ([4]; HEK293T cells, confocal microscopy) was “severely impaired nuclear localization and EGFP reporter activation”, the “percentage of cells that activate EGFP” value ([4]; HEK293 reporter cells) was ~16% and the EGFP activation ([4]; HEK293 reporter cells, normalized to untransfected cells) was 4 fold. The EGFP activation ([4]; synthetic NLS added back to the N-terminus) was “partially restored EGFP activation”.

“NC5: hNECD-dCas9-VPR-mCherry with LMAN1 MMS sequence at the C-terminus, no synthetic NLS” was tested, and the EGFP activation [5] was “did not activate EGFP”, the “H2B activation in response to Delta” value ([6]; CHO reporter cells with NC5 and sgUAS stably integrated, single clone) was “Three-fold” and the “H2B expression with or without Delta” value ([6]; transfected CHO UAS-H2B-citrine sgUAS cells, bare or Delta-coated surface, 4 days) was “exhibited Delta-dependent activation of H2B”. The “upregulation of CDKN1B” value ([7]; 4 days on Delta, compared to bare-surface, untransfected controls) was > 2 fold and the “cells sequestered at the G0/G1 phase” value ([7]; Delta-exposed, NC5-transfected, sgCDKN1B+ cells) was 38%.

“S. au. NC5 dCas9 variant: NC5 design with Staphylococcus aureus dCas9” was tested, and the “Delta-dependent activation levels of H2B-citrine” value [8] was “exhibited Delta-dependent activation levels similar to wild-type human NOTCH1”.
